Results reported in PubChem BioAssay AID1195 (EPA DSSTox, 2008).

System: human maximum recommended daily dose, FDA database
Assay: DSSTox (FDAMDD) FDA Maximum (Recommended) Daily Dose Database
Conditions: stronger effect = lower value
Summary of the method: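 MRDD values come from clinical trials with daily oral dosing, usually for 3–12 months, for the average adult, in mg/day converted to mg/kg-bw/day assuming 60 kg. Antineoplastic mg/m2 doses are divided by 37. Activity score maps log10(1/MRDD mmol) onto 1–100.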

[1] = TherapeuticCategory: antibacterial
[2] = TherapeuticCategory: antineoplastic
[3] = TherapeuticCategory: antihypertensive
[4] = TherapeuticCategory: glucocorticoid
[5] = TherapeuticCategory: diagnostic aid
[6] = TherapeuticCategory: antiparkinsonian
[7] = TherapeuticCategory: anticonvulsant
[8] = TherapeuticCategory: antihypertensive, antianginal

## NS(=O)(=O)c1cc(Cl)c(Cl)c(S(N)(=O)=O)c1
TherapeuticCategory: carbonic anhydrase inhibitor
  maximum recommended daily dose (mmol/kg-bw/day): 0.0109

## CC1=C(C(=O)O)N2C(=O)[C@@H](NC(=O)[C@H](N)c3ccccc3)[C@H]2SC1
[1]
  maximum recommended daily dose (mmol/kg-bw/day): 0.192

## CS(=O)(=O)c1ccc([C@@H](O)[C@@H](COC(=O)CN)NC(=O)C(Cl)Cl)cc1
[1]
  maximum recommended daily dose (mmol/kg-bw/day): 0.111

## CO/N=C(/C(=O)N[C@@H]1C(=O)N2C(C(=O)O)=C(COC(C)=O)CS[C@H]12)c1csc(N)n1
[1]
  maximum recommended daily dose (mmol/kg-bw/day): 0.439

## CN1CCC(=C2c3ccccc3CCc3sccc32)CC1
TherapeuticCategory: anabolic, antidepressant, serotonin inhibitor
  maximum recommended daily dose (mmol/kg-bw/day): 0.000169

## CNC(C)(C)Cc1ccccc1
TherapeuticCategory: adrenergic
  maximum recommended daily dose (mmol/kg-bw/day): 0.00613

## O=C(OCC(COC(=O)c1cccnc1)(COC(=O)c1cccnc1)COC(=O)c1cccnc1)c1cccnc1
TherapeuticCategory: antihyperlipoproteinemic
  maximum recommended daily dose (mmol/kg-bw/day): 0.00719

## CS(=O)(=O)OCCCCOS(C)(=O)=O
[2]
  maximum recommended daily dose (mmol/kg-bw/day): 0.00054

## CCC1NC(=O)c2cc(S(N)(=O)=O)c(Cl)cc2N1 (stereo not given)
TherapeuticCategory: diuretic
  maximum recommended daily dose (mmol/kg-bw/day): 0.0115

## NC[C@H]1O[C@H](O[C@H]2[C@H](O)[C@@H](O[C@H]3O[C@H](CO)[C@@H](O)[C@H](N)[C@H]3O)[C@H](N)C[C@@H]2N)[C@H](N)C[C@@H]1O
[1]
  maximum recommended daily dose (mmol/kg-bw/day): 0.0193

## N=C(N)N1CCc2ccccc2C1
[3]
  maximum recommended daily dose (mmol/kg-bw/day): 0.0285

## COc1cc(C(=O)N2CCOCC2)cc(OC)c1OC
TherapeuticCategory: sedative
  maximum recommended daily dose (mmol/kg-bw/day): 0.178

## NC[C@H]1O[C@H](O[C@H]2[C@H](O)[C@@H](O[C@H]3O[C@H](CO)[C@@H](O)[C@H](N)[C@H]3O)[C@H](N)C[C@@H]2N)[C@H](O)[C@@H](O)[C@@H]1O
[1]
  maximum recommended daily dose (mmol/kg-bw/day): 0.031

## CC1(C)O[C@@H]2[C@@H](CO[C@@]3(COS(N)(=O)=O)OC(C)(C)O[C@@H]23)O1
TherapeuticCategory: antiepileptic
  maximum recommended daily dose (mmol/kg-bw/day): 0.0197

## CCCN[C@H]1CCc2nc(N)sc2C1
TherapeuticCategory: antiparkinsonian, dopamine receptor agonist
  maximum recommended daily dose (mmol/kg-bw/day): 0.000473

## C[C@H]1C[C@@H]2[C@H]([C@@H](O)C[C@@]3(C)[C@H]2CC[C@]3(O)C(=O)CO)[C@@]2(C)C=CC(=O)C=C12
[4]
  maximum recommended daily dose (mmol/kg-bw/day): 0.0111

## C=CCN1C[C@H](C(=O)N(CCCN(C)C)C(=O)NCC)C[C@@H]2c3cccc4[nH]cc(c34)C[C@H]21
TherapeuticCategory: antidyskinetic, prolactin inhibitor, antiparkinsonian, dopamine receptor antagonist
  maximum recommended daily dose (mmol/kg-bw/day): 4.43e-05

## N[C@@H](C(=O)N[C@@H]1C(=O)N2C(C(=O)O)=C(CSc3cn[nH]n3)CS[C@H]12)c1ccc(O)cc1
[1]
  maximum recommended daily dose (mmol/kg-bw/day): 0.0361

## NCCc1ccn[nH]1
[5]
  maximum recommended daily dose (mmol/kg-bw/day): 0.0045

## CCCC(C)C1(CC)C(=O)NC(=S)NC1=O (stereo not given)
TherapeuticCategory: short acting anesthetic
  maximum recommended daily dose (mmol/kg-bw/day): 0.0172

## O=C1Nc2ccc(Cl)cc2C(c2ccccc2Cl)=NC1O (stereo not given)
TherapeuticCategory: anxiolytic
  maximum recommended daily dose (mmol/kg-bw/day): 0.00052

## CCOC(=O)C1(c2ccccc2)CCCN(C)CC1 (stereo not given)
TherapeuticCategory: analgesic
  maximum recommended daily dose (mmol/kg-bw/day): 0.0383

## CO[C@H]1/C=C/O[C@@]2(C)Oc3c(C)c(O)c4c(O)c(c(/C=N/N5CCN(C)CC5)c(O)c4c3C2=O)NC(=O)/C(C)=C\C=C\[C@H](C)[C@H](O)[C@@H](C)[C@@H](O)[C@@H](C)[C@H](OC(C)=O)[C@@H]1C
[1]
  maximum recommended daily dose (mmol/kg-bw/day): 0.0243

## CC(C)NCC(O)COc1ccc(COCCOC(C)C)cc1 (stereo not given)
[3]
  maximum recommended daily dose (mmol/kg-bw/day): 0.00102

## COc1cc(NS(=O)(=O)c2ccc(N)cc2)nc(C)n1
[1]
  maximum recommended daily dose (mmol/kg-bw/day): 0.113

## Cc1onc(-c2ccccc2Cl)c1C(=O)N[C@@H]1C(=O)N2[C@@H]1SC(C)(C)[C@@H]2C(=O)O
[1]
  maximum recommended daily dose (mmol/kg-bw/day): 0.0764

## C=CCC1(C(C)C#CCC)C(=O)NC(=O)N(C)C1=O (stereo not given)
TherapeuticCategory: anesthetic
  maximum recommended daily dose (mmol/kg-bw/day): 0.00762

## CC(C)Cc1ccc(C(C)C(=O)O)cc1 (stereo not given)
TherapeuticCategory: anti inflammatory
  maximum recommended daily dose (mmol/kg-bw/day): 0.194

## CC(=O)N[C@@H](CS)C(=O)O
TherapeuticCategory: mucolytic, corneal vulnerary
  maximum recommended daily dose (mmol/kg-bw/day): 0.0613

## NS(=O)(=O)c1cc(C(=O)O)cc(N2CCCC2)c1Oc1ccccc1
TherapeuticCategory: diuretic
  maximum recommended daily dose (mmol/kg-bw/day): 0.000552

## CN1CCC(OC(c2ccccc2)c2ccccc2)CC1
TherapeuticCategory: antihistaminic
  maximum recommended daily dose (mmol/kg-bw/day): 0.00118

## CN(C)CCOC(C)(c1ccccc1)c1ccccn1 (stereo not given)
TherapeuticCategory: antihistaminic, hypnotic
  maximum recommended daily dose (mmol/kg-bw/day): 0.00154

## NC(CO)C(=O)NNCc1ccc(O)c(O)c1O (stereo not given)
[6]
  maximum recommended daily dose (mmol/kg-bw/day): 0.0129

## COc1cc([C@@H]2Oc3cc([C@H]4Oc5cc(O)cc(O)c5C(=O)[C@@H]4O)ccc3O[C@H]2CO)ccc1O
TherapeuticCategory: treatment of liver disfunction
  maximum recommended daily dose (mmol/kg-bw/day): 0.0145

## CCOC(=O)[C@H](CCc1ccccc1)N[C@@H](C)C(=O)N1CCC[C@H]1C(=O)O
[3]
  maximum recommended daily dose (mmol/kg-bw/day): 0.00177

## COC(=O)C1=CCCN(C)C1
TherapeuticCategory: anthelmintic
  maximum recommended daily dose (mmol/kg-bw/day): 0.000215

## COc1ccc(CCN2CCC(Nc3nc4ccccc4n3Cc3ccc(F)cc3)CC2)cc1
TherapeuticCategory: antiallergic, antiarrhythmic
  maximum recommended daily dose (mmol/kg-bw/day): 0.000364

## CN1C(=O)CC(c2ccccc2)C1=O (stereo not given)
[7]
  maximum recommended daily dose (mmol/kg-bw/day): 0.264

## CO[C@H]1C[C@H](O[C@H]2[C@H](C)[C@@H](O[C@@H]3O[C@H](C)C[C@H](N(C)C)[C@H]3O)[C@@H](C)C[C@]3(CO3)C(=O)[C@H](C)[C@@H](O)[C@@H](C)[C@@H](C)OC(=O)[C@@H]2C)O[C@@H](C)[C@@H]1O
[1]
  maximum recommended daily dose (mmol/kg-bw/day): 0.0484

## Cc1cc(-c2ccc(N=Nc3ccc4c(S(=O)(=O)O)cc(S(=O)(=O)O)c(N)c4c3O)c(C)c2)ccc1N=Nc1ccc2c(S(=O)(=O)O)cc(S(=O)(=O)O)c(N)c2c1O
[5]
  maximum recommended daily dose (mmol/kg-bw/day): 0.000347

## COc1cc2c3cc1Oc1cc(ccc1O)C[C@@H]1c4c(cc(OC)c(O)c4Oc4ccc(cc4)C[C@@H]3N(C)CC2)CC[N+]1(C)C
TherapeuticCategory: skeletal muscle relaxant, diagnostic aid
  maximum recommended daily dose (mmol/kg-bw/day): 0.000979

## COCC1=C(C(=O)OC(C)OC(=O)OC(C)C)N2C(=O)[C@@H](NC(=O)/C(=N\OC)c3csc(N)n3)[C@H]2SC1 (stereo not given in full)
[1]
  maximum recommended daily dose (mmol/kg-bw/day): 0.0179

## CN[C@H]1[C@@H](O)[C@H](O[C@H]2O[C@H]([C@H](C)N)CC[C@H]2N)[C@@H](N)[C@H](O)[C@@H]1OC
[1]
  maximum recommended daily dose (mmol/kg-bw/day): 0.0191

## CC1(C)S[C@@H]2[C@H](NC(=O)[C@@H](NC(=O)N3CCNC3=O)c3ccccc3)C(=O)N2[C@H]1C(=O)O
[1]
  maximum recommended daily dose (mmol/kg-bw/day): 0.217

## CC(C)[N+](C)(CCC(C(N)=O)(c1ccccc1)c1ccccc1)C(C)C
TherapeuticCategory: anticholinergic
  maximum recommended daily dose (mmol/kg-bw/day): 0.000472

## O=C(O)Cn1cc(I)c(=O)c(I)c1
[5]
  maximum recommended daily dose (mmol/kg-bw/day): 0.196

## CCN(CC)S(=O)(=O)c1ccc(C(=O)O)cc1
TherapeuticCategory: uricosuric
  maximum recommended daily dose (mmol/kg-bw/day): 0.194

## Cc1ccc(S(=O)(=O)NC(=O)NN2CCCCCC2)cc1
TherapeuticCategory: antidiabetic
  maximum recommended daily dose (mmol/kg-bw/day): 0.0536

## CCN1CCN(C(=O)N[C@@H](C(=O)N[C@@H]2C(=O)N3[C@@H]2SC(C)(C)[C@@H]3C(=O)O)c2ccccc2)C(=O)C1=O
[1]
  maximum recommended daily dose (mmol/kg-bw/day): 0.773

## CCOC(=O)C1=C(C)NC(C)=C(C(=O)OC)C1c1cccc(Cl)c1Cl (stereo not given)
[8]
  maximum recommended daily dose (mmol/kg-bw/day): 0.000867

## C[C@H]1C[C@H]2[C@@H]3CCC4=CC(=O)C=C[C@]4(C)[C@@]3(F)[C@@H](O)C[C@]2(C)[C@@]1(O)C(=O)CO
[4]
  maximum recommended daily dose (mmol/kg-bw/day): 0.000382

## CCN(CC)C(=O)Nc1ccc(OCC(O)CNC(C)(C)C)c(C(C)=O)c1 (stereo not given)
[8]
  maximum recommended daily dose (mmol/kg-bw/day): 0.0176

## CCC1(c2ccccc2)C(=O)NCNC1=O
[7]
  maximum recommended daily dose (mmol/kg-bw/day): 0.0382

## CC(=O)O[C@H]1C(=O)[C@@]2(C)[C@H]([C@H](OC(=O)c3ccccc3)[C@]3(O)C[C@H](OC(=O)[C@H](O)[C@@H](NC(=O)c4ccccc4)c4ccccc4)C(C)=C1C3(C)C)[C@]1(OC(C)=O)CO[C@@H]1C[C@@H]2O
[2]
  maximum recommended daily dose (mmol/kg-bw/day): 0.00554

## CC(=O)Nc1c(I)cc(I)c(C(=O)O)c1I
[5]
  maximum recommended daily dose (mmol/kg-bw/day): 0.18

## CC(=O)Oc1ccc(C2(c3ccc(OC(C)=O)cc3)C(=O)Nc3ccccc32)cc1
TherapeuticCategory: cathartic
  maximum recommended daily dose (mmol/kg-bw/day): 0.00208

## O=C(O)CN(CCN(CC(=O)O)CC(=O)O)CC(=O)O
TherapeuticCategory: pharmaceutic aid
  maximum recommended daily dose (mmol/kg-bw/day): 0.24

## N[C@@H](Cc1cc(I)c(Oc2cc(I)c(O)c(I)c2)c(I)c1)C(=O)O
TherapeuticCategory: hyperthyroidism
  maximum recommended daily dose (mmol/kg-bw/day): 1.07e-05

## C[C@H]1O[C@@H](O[C@H]2[C@@H](O)C[C@H](O[C@H]3[C@@H](O)C[C@H](O[C@H]4CC[C@@]5(C)[C@H](CC[C@@H]6[C@@H]5CC[C@]5(C)[C@@H](C7=CC(=O)OC7)CC[C@]65O)C4)O[C@@H]3C)O[C@@H]2C)C[C@H](O)[C@@H]1O
TherapeuticCategory: cardiotonic
  maximum recommended daily dose (mmol/kg-bw/day): 2.61e-08

## O=C1CN(/N=C/c2ccc([N+](=O)[O-])o2)C(=O)N1
[1]
  maximum recommended daily dose (mmol/kg-bw/day): 0.028

## CCOc1ccccc1C(N)=O
TherapeuticCategory: analgesic
  maximum recommended daily dose (mmol/kg-bw/day): 0.404

## C[C@@](Cc1ccc(O)c(O)c1)(NN)C(=O)O
[6]
  maximum recommended daily dose (mmol/kg-bw/day): 0.00368

## N[C@@H](Cc1ccc(O)c(O)c1)C(=O)O
[6]
  maximum recommended daily dose (mmol/kg-bw/day): 0.674

## C#C[C@]1(O)CC[C@H]2[C@@H]3CCC4=Cc5oncc5C[C@]4(C)[C@H]3CC[C@@]21C
TherapeuticCategory: antigonadotropin
  maximum recommended daily dose (mmol/kg-bw/day): 0.0394

## Cc1ccc(-c2cc(C(F)(F)F)nn2-c2ccc(S(N)(=O)=O)cc2)cc1
TherapeuticCategory: anti inflammatory, antiarthritic
  maximum recommended daily dose (mmol/kg-bw/day): 0.0175

## COc1ccccc1OCCNCC(O)COc1cccc2[nH]c3ccccc3c12 (stereo not given)
[8]
  maximum recommended daily dose (mmol/kg-bw/day): 0.00103

## CCN(CC)C(C)CN1c2ccccc2Sc2ccccc21 (stereo not given)
TherapeuticCategory: antiparkinsonian, anticholinergic
  maximum recommended daily dose (mmol/kg-bw/day): 0.032

## CCc1nn(CCCN2CCN(c3cccc(Cl)c3)CC2)c(=O)n1CCOc1ccccc1
TherapeuticCategory: antidepressant, seratonin receptor antagonist
  maximum recommended daily dose (mmol/kg-bw/day): 0.0213

## O=C(c1ccc(OCCN2CCCCC2)cc1)c1c(-c2ccc(O)cc2)sc2cc(O)ccc12
TherapeuticCategory: antiosteoporotic, antiestrogen
  maximum recommended daily dose (mmol/kg-bw/day): 0.0211

## NC(CSCC(=O)O)C(=O)O (stereo not given)
TherapeuticCategory: mucolytic, expectorant
  maximum recommended daily dose (mmol/kg-bw/day): 0.209
